Reference: the NIST ThermoML archive (doi:10.1016/j.jct.2005.03.006)

Test: wn = mass fraction of the nth substance listed
Settings: Liquid, Buoyancy - hydrostatic balance

c1ccccc1 [benzene] + CO
mass density [kg/m3]
Settings	100 kPa	5000 kPa	9900 kPa	19700 kPa	29500 kPa	39300 kPa	49100 kPa	58900 kPa
287.65 K, w2 = 0.5	840.5	844.4	847.9	855.8	863	869.5	875.2	881
291.15 K, w2 = 0.25	857.7	862	866.1	873.8	880.6	887.3	893.2	899.1
292.65 K, w2 = 0.75	815.2	819.9	824.2	832.1	839.2	846.4	852.5	858.7
297.35 K, w2 = 0.5	830.9	835.6	839.9	847.7	855	862.1	868	874
313.66 K, w2 = 0.25	835	840.1	844.8	852.9	860.8	868.4	875.1	881
314.15 K, w2 = 0.75	795.6	800.3	804.7	813	821.1	828.8	835.9	–
322.15 K, w2 = 0.5	806.5	811.8	817	825.3	833.4	841.4	848.2	855.1
337.37 K, w2 = 0.25	–	816.2	822.1	831	840	848.3	856	862.7
338.35 K, w2 = 0.75	–	776.6	781.6	791	800.2	809	817.1	823.9
341.35 K, w2 = 0.5	–	791.4	797.7	807.3	816.2	825.1	832.9	840
356.15 K, w2 = 0.5	–	775.2	781.8	792	802.8	811.7	819.8	827.6
361.64 K, w2 = 0.25	–	789.2	796.5	806.8	817.1	826.9	835	842.7
361.65 K, w2 = 0.75	–	750.9	757	767.9	778.4	788.1	797	804.9
376.65 K, w2 = 0.5	–	750.9	758.2	770.8	784	793.2	801.8	–
383.15 K, w2 = 0.75	–	724.9	732.5	745	757.4	768.2	777.8	786.9
383.16 K, w2 = 0.25	–	764.1	772.6	784.4	796.3	807.6	815.9	824.8
402.15 K, w2 = 0.5	–	718.4	726.6	742.7	757.7	769	778.9	788.6
406.65 K, w2 = 0.75	–	693.4	703.3	718.9	733.3	745	755.9	766.2
407.66 K, w2 = 0.25	–	732	741.5	757.6	771.3	784.6	793.3	803.2
428.15 K, w2 = 0.5	–	678.8	689.5	710.6	728.7	742.1	753.2	764.7
429.26 K, w2 = 0.25	–	699.7	710.6	731.1	748.2	762.9	773	783.8
431.35 K, w2 = 0.75	–	656.6	667.9	689.5	706.7	720	732.5	744.1
453.2 K, w2 = 0.25	–	659.6	673.3	699.7	720.8	736.9	748.8	760.9
453.65 K, w2 = 0.5	–	634	649.1	676.5	697.6	714	727	739.3
458.5 K, w2 = 0.75	–	605.4	624.7	653.6	674.8	690.2	705	718.3
475.26 K, w2 = 0.25	–	616.4	639.6	669.8	694.3	710.8	725.7	739.4
477.35 K, w2 = 0.75	–	558.2	590.9	628.5	652.3	669.8	686.2	699.9
496.65 K, w2 = 0.75	–	483.6	549.1	601.8	628.5	647.8	665.6	680.8
497.15 K, w2 = 0.5	–	520.7	570	617.6	643.1	661.9	680.8	694.6
497.17 K, w2 = 0.25	–	566.6	598.9	639	664.5	684.2	701.6	717
